{"source": "patent US20090298938A1", "about": "“USE OF SEMI SYNTHETIC ANALOGUES OF BOSWELLIC ACIDS FOR ANTICANCER ACTIVITY” (COUNCIL OF SCIENTIFIC & INDUSTRIAL RESEARCH, priority 2008, published 2009)", "type_in_all_cases": "cell-based, human", "key": {"HT-29 colon cancer cells": {"test_system": "HT-29 colon cancer cells", "assay": "In vitro cytotoxicity, SRB assay, HT-29", "experimental": "(§1) The semi-synthetic analogues of formula 1 have been subjected to in vitro cytotoxicity screening in a panel of human cancer cell lines using following methodology. The human cancer cell lines were obtained either from National Center for Cell Science, Pune or National Cancer Institute, Fredrick, Md., USA. Cells were grown in tissue culture flasks in complete growth medium (RPMI-1640 medium with 2 mM glutamine, 100 µg/ml streptomycin, pH 7.4, sterilized by filtration and supplemented with 10% sterilized fetal calf serum and 100 units/ml penicillin before use) at 37° C. in an atmosphere of 5% CO2 and 90% relative humidity in a carbon dioxide incubator. The cells at sub-confluent stage were harvested from flask by treatment with trypsin (0.05% trypsin in PBS containing 0.02% EDTA) and suspended in complete growth medium. Cells with cell viability of more than 97% by trypan blue exclusion technique were used for determination of cytotoxicity.\n(§2) Test material were dissolved in DMSO (dimethyl sulphoxide) to obtain a stock solution of 2×10^−2M. The stock solution was serially diluted with complete growth medium containing 50 μg/ml of gentamycin to obtain working test solutions of required concentrations.\n(§3) The suspension of human cancer cell lines of required cell density in complete growth medium was prepared and cell suspension (100 μl/well) of each cell line was added to wells of 96-well tissue culture plate. Suitable blanks and controls were also included. The plates were incubated for 24 hrs in a carbon dioxide incubator.\n(§4) The working test solutions of different concentrations (100 μl/well) were added after 24 hr incubation. The plates were further incubated for 48-hrs after addition of the test materials. After incubation, the cell growth was stopped by gently layering of 50 μl of TCA (50% trichloroacetic acid) on top of the medium in all the wells. The plates were incubated at 4° C. for one hour to fix the cells attached to bottom of the wells. Liquids of all the wells were gently pipetted out and discarded. The plates were washed five times with distilled water to remove TCA, growth medium, low molecular weight metabolites, serum proteins etc. The plates were air dried.\n(§5) Cell growth was measured by staining with sulforhodamine B dye (SRB). The SRB solution (100 μl, 0.4% in 1% acetic acid) was added to each well and the plates were incubated at room temperature for 30 minutes. The unbound SRB was quickly removed by washing the wells five times with 1% acetic acid solution and plates were air dried. Tris buffer (100 μl, 0.01 M, pH 10.4) was added to all the wells and plates were gently stirred for 5 minutes on a mechanical stirrer. The optical density was recorded on ELISA reader at 540 nm.\n(§6) Cell growth in the presence of test material was calculated in terms of the percentage of growth inhibition. The in vitro cytotoxicity of four natural boswellic acid i.e. boswellic acid, acetyl boswellic acid, 11-keto-boswellic acids, acetyl-11-ketio-boswellic acid on various cancer cell lines has been examined and typical results are given in the succeeding table. Based on their cytotoxicity profile the analogues of formula 1 were studied for inhibition of cell proliferation by using MTT assay method. […] The induction of apoptosis in HL-60 cells was also validated by generation of DNA fragmentation.\n(§7) Assay of cytotoxicity potential of test materials is a primary standard procedure for seeking lead molecules for development of anti-cancer leads. Human cancer cells after trypsinization into single cell suspension were grown in 96-well culture plate for 24 hr. Cells were treated with indicated doses of test analogues and incubated in CO2 incubator for 48 hr. Thereafter, cells were stained with sulforhodamine B dye, and the bound dye was eluted to measure the optical density indicating cell growth in Elisa Reader at 540 nm [Monks et al., 1991]. […]"}, "[1]": {"test_system": "SW-620 colon cancer cells", "assay": "In vitro cytotoxicity, SRB assay, SW-620", "experimental": "as §1, §2, §3, §4, §5, §6, §7"}, "[2]": {"test_system": "Colo-205 colon cancer cells", "assay": "In vitro cytotoxicity, SRB assay, Colo-205", "experimental": "as §1, §2, §3, §4, §5, §6, §7"}, "Hep-2 cells": {"test_system": "Hep-2 cells", "assay": "In vitro cytotoxicity, SRB assay, Hep-2", "experimental": "as §1, §2, §3, §4, §5, §6, §7"}, "PC-3 cells": {"test_system": "PC-3 cells", "assay": "In vitro cytotoxicity, SRB assay, PC-3", "experimental": "as §1, §2, §3, §4, §5, §6, §7"}, "[3]": {"settings": "Conc. 5 × 10^5 (r27-r29: 5 × 10^−5), 48 hr, Table 1"}, "[4]": {"settings": "Conc. 5 × 10^−5, 48 hr, natural boswellic acids"}}}
{"smiles": "CC1CCC2(C)CCC3(C)C(=CC(=O)C4C5(C)CCC(OC(=O)CCC(=O)O)C(C)(C(=O)O)C5CCC43C)C2C1C", "note": "(stereo not drawn) [1,R3O = —COCH2CH2COOH R1 = H, R4 + R5 = O]", "values": [{"measurement": "Growth inhibition % HT-29 Colon", "setting": "HT-29 colon cancer cells; [3]", "value": 16, "unit": "%"}, {"measurement": "Growth inhibition % SW-620 Colon", "setting": "[1]; [3]", "value": 2, "unit": "%"}, {"measurement": "Growth inhibition % Colo-205 Colon", "setting": "[2]; [3]", "value": 29, "unit": "%"}, {"measurement": "Growth inhibition % Hep-2", "setting": "Hep-2 cells; [3]", "value": 17, "unit": "%"}, {"measurement": "Growth inhibition % PC-3", "setting": "PC-3 cells; [3]", "value": 60, "unit": "%"}]}
{"smiles": "CCCC(=O)OC1CCC2(C)C(CCC3(C)C2CC=C2C4C(C)C(C)CCC4(C)CCC23C)C1(C)C(=O)O", "note": "(stereo not drawn) [1,R3O = COCH2CH2CH3, R1 = H, R4 = R5 = H]", "values": [{"measurement": "Growth inhibition % HT-29 Colon", "setting": "HT-29 colon cancer cells; [3]", "value": 54, "unit": "%"}, {"measurement": "Growth inhibition % SW-620 Colon", "setting": "[1]; [3]", "value": 83, "unit": "%"}, {"measurement": "Growth inhibition % Colo-205 Colon", "setting": "[2]; [3]", "value": 71, "unit": "%"}, {"measurement": "Growth inhibition % Hep-2", "setting": "Hep-2 cells; [3]", "value": 65, "unit": "%"}, {"measurement": "Growth inhibition % PC-3", "setting": "PC-3 cells; [3]", "value": 80, "unit": "%"}]}
{"smiles": "CCC(=O)OC1CCC2(C)C(CCC3(C)C2C(=O)C=C2C4C(C)C(C)CCC4(C)CCC23C)C1(C)C(=O)O", "note": "(stereo not drawn) [1, R = COCH2CH3, R1 = H, R4 + R5 = O]", "values": [{"measurement": "Growth inhibition % HT-29 Colon", "setting": "HT-29 colon cancer cells; [3]", "value": 67, "unit": "%"}, {"measurement": "Growth inhibition % SW-620 Colon", "setting": "[1]; [3]", "value": 75, "unit": "%"}, {"measurement": "Growth inhibition % Colo-205 Colon", "setting": "[2]; [3]", "value": 80, "unit": "%"}, {"measurement": "Growth inhibition % Hep-2", "setting": "Hep-2 cells; [3]", "value": 65, "unit": "%"}, {"measurement": "Growth inhibition % PC-3", "setting": "PC-3 cells; [3]", "value": 99, "unit": "%"}]}
{"smiles": "CO[C@@]12[C@H](COC(N)=O)C3=C(C(=O)C(C)=C(N)C3=O)N1C[C@@H]1N[C@@H]12", "note": "[Mitomycin C, reference compound]", "values": [{"measurement": "Growth inhibition % HT-29 Colon", "setting": "HT-29 colon cancer cells; Conc. 1 × 10^6, Table 2", "value": 33, "unit": "%"}, {"measurement": "Growth inhibition % HT-29 Colon", "setting": "HT-29 colon cancer cells; Conc. 1 × 10^7, Table 2", "value": 19, "unit": "%"}, {"measurement": "Growth inhibition % SW-620 Colon", "setting": "[1]; Conc. 1 × 10^6, Table 2", "value": 57, "unit": "%"}, {"measurement": "Growth inhibition % SW-620 Colon", "setting": "[1]; Conc. 1 × 10^7, Table 2", "value": 27, "unit": "%"}, {"measurement": "Growth inhibition % Colo-205 Colon", "setting": "[2]; Conc. 1 × 10^6, Table 2", "value": 28, "unit": "%"}, {"measurement": "Growth inhibition % Colo-205 Colon", "setting": "[2]; Conc. 1 × 10^7, Table 2", "value": 41, "unit": "%"}, {"measurement": "Growth inhibition % Hep-2", "setting": "Hep-2 cells; Conc. 1 × 10^6, Table 2", "value": 46, "unit": "%"}, {"measurement": "Growth inhibition % Hep-2", "setting": "Hep-2 cells; Conc. 1 × 10^7, Table 2", "value": 12, "unit": "%"}, {"measurement": "Growth inhibition % PC-3", "setting": "PC-3 cells; Conc. 1 × 10^6, Table 2", "value": 24, "unit": "%"}, {"measurement": "Growth inhibition % PC-3", "setting": "PC-3 cells; Conc. 1 × 10^7, Table 2", "value": 18, "unit": "%"}]}
{"smiles": "CCCC(=O)OC1CCC2(C)C(CCC3(C)C2C(=O)C=C2C4C(C)C(C)CCC4(C)CCC23C)C1(C)C(=O)O", "note": "(stereo not drawn)", "values": [{"measurement": "Growth inhibition % Colo-205 Colon", "setting": "[2]; [3]", "value": 94, "unit": "%"}]}
{"smiles": "C[C@H]1[C@H](C)CC[C@]2(C)CC[C@]3(C)C(=CC[C@@H]4[C@@]5(C)CC[C@@H](O)[C@](C)(C(=O)O)[C@@H]5CC[C@]43C)[C@H]12", "note": "[Boswellic acid]", "values": [{"measurement": "Growth inhibition % HT-29 Colon", "setting": "HT-29 colon cancer cells; [4]", "value": 69, "unit": "%"}, {"measurement": "Growth inhibition % SW-620 Colon", "setting": "[1]; [4]", "value": 61, "unit": "%"}, {"measurement": "Growth inhibition % Colo-205 Colon", "setting": "[2]; [4]", "value": 86, "unit": "%"}, {"measurement": "Growth inhibition % Hep-2", "setting": "Hep-2 cells; [4]", "value": 45, "unit": "%"}, {"measurement": "Growth inhibition % PC-3", "setting": "PC-3 cells; [4]", "value": 100, "unit": "%"}]}
{"smiles": "CC1CCC2(C)CCC3(C)C(=CC(=O)C4C5(C)CCC(OC=O)C(C)(C(=O)O)C5CCC43C)C2C1C", "note": "(stereo not drawn) [1, R3O = COH, R1 = H, R4 + R5 = O]", "values": [{"measurement": "Growth inhibition % HT-29 Colon", "setting": "HT-29 colon cancer cells; [3]", "value": 62, "unit": "%"}, {"measurement": "Growth inhibition % SW-620 Colon", "setting": "[1]; [3]", "value": 70, "unit": "%"}, {"measurement": "Growth inhibition % Colo-205 Colon", "setting": "[2]; [3]", "value": 76, "unit": "%"}, {"measurement": "Growth inhibition % Hep-2", "setting": "Hep-2 cells; [3]", "value": 56, "unit": "%"}, {"measurement": "Growth inhibition % PC-3", "setting": "PC-3 cells; [3]", "value": 99, "unit": "%"}]}
{"smiles": "CC(=O)OC1CCC2(C)C(CCC3(C)C2CC=C2C4C(C)C(C)CCC4(C)CCC23C)C1(C)C(=O)O", "note": "(stereo not drawn) [1, R3O = —COCH3, R1 = H, R4 = R5 = H]", "values": [{"measurement": "Growth inhibition % HT-29 Colon", "setting": "HT-29 colon cancer cells; [3]", "value": 34, "unit": "%"}, {"measurement": "Growth inhibition % SW-620 Colon", "setting": "[1]; [3]", "value": 38, "unit": "%"}, {"measurement": "Growth inhibition % Colo-205 Colon", "setting": "[2]; [3]", "value": 34, "unit": "%"}, {"measurement": "Growth inhibition % Hep-2", "setting": "Hep-2 cells; [3]", "value": 41, "unit": "%"}, {"measurement": "Growth inhibition % PC-3", "setting": "PC-3 cells; [3]", "value": 54, "unit": "%"}]}
{"smiles": "CCCC(=O)OC1CCC2(C)C(CCC3(C)C2CC=C2C4C(C)C(C)CCC4(C)CCC23C)C1(C)C(=O)O", "note": "(stereo not drawn) [1, R3O = COCH2CH2CH3, R1 = H, R4 = R5 = H]", "values": [{"measurement": "Growth inhibition % HT-29 Colon", "setting": "HT-29 colon cancer cells; [3]", "value": 98, "unit": "%"}, {"measurement": "Growth inhibition % SW-620 Colon", "setting": "[1]; [3]", "value": 101, "unit": "%"}, {"measurement": "Growth inhibition % Colo-205 Colon", "setting": "[2]; [3]", "value": 91, "unit": "%"}, {"measurement": "Growth inhibition % Hep-2", "setting": "Hep-2 cells; [3]", "value": 99, "unit": "%"}, {"measurement": "Growth inhibition % PC-3", "setting": "PC-3 cells; [3]", "value": 75, "unit": "%"}]}
{"smiles": "CC1CCC2(C)CCC3(C)C(=CC(=O)C4C5(C)CCC(OC(=O)CCC(=O)O)C(C)(C(=O)O)C5CCC43C)C2C1C", "note": "(stereo not drawn) [1,R3O = —COCH2CH2COOH, R1 = H, R4 + R5= O]", "values": [{"measurement": "Growth inhibition % HT-29 Colon", "setting": "HT-29 colon cancer cells; [3]", "value": 3, "unit": "%"}, {"measurement": "Growth inhibition % SW-620 Colon", "setting": "[1]; [3]", "value": 0, "unit": "%"}, {"measurement": "Growth inhibition % Colo-205 Colon", "setting": "[2]; [3]", "value": 1, "unit": "%"}, {"measurement": "Growth inhibition % Hep-2", "setting": "Hep-2 cells; [3]", "value": 7, "unit": "%"}, {"measurement": "Growth inhibition % PC-3", "setting": "PC-3 cells; [3]", "value": 38, "unit": "%"}]}
